Measurements from US20250289814A1, “COMPOUNDS AS PARP1 INHIBITIORS” (NINGBO NEWBAY TECHNOLOGY DEVELOPMENT CO., LTD., priority 2022, published 2025).
In brackets after ≈: the same amount, converted by molar mass. Where two headings read alike, the source gives them in different places.

Columns and labels:
Caco-2 cell monolayers = assay: Caco2 (A-B/B-A) permeability; assay type: in vitro ADME; conditions: for Caco2 efflux ratio (ER): PappB-A/PappA-B; for Caco2 A-B apparent permeability (Papp): apical-to-basolateral; for Caco2 A-B apparent permeability (Papp) / Caco2 B-A apparent permeability (Papp): 5 μM, HBSS pH 7.4, 120 min, 37° C.; for Caco2 B-A apparent permeability (Papp): basolateral-to-apical
Outline: (§1)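 Bidirectional A-B and B-A transport of 5 μM compound across Caco-2 monolayers in HBSS (10 mM HEPES, pH 7.4), duplicate, ~37° C for 120 min. Donor and receiver levels measured by UPLC-MS/MS give Papp. Efflux ratio = PappB-A/PappA-B, with monolayer integrity checked by Lucifer yellow.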

DLD1-BRCA2−/− cells = assay: Cell proliferation assay in DLD1-BRCA2−/− cell lines (CellTiter-Glo, 7 days); assay type: cell-based
Outline: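 Cells in RPMI 1640 + 10% FBS seeded overnight, then exposed to compound or vehicle for 7 days at 37 °C, 5% CO2. Viability read on day 8 by CellTiter-Glo luminescence; % inhibition fitted to a four-parameter logistic curve for IC50.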

[1] = molecular target: Recombinant full length PARP2 (Homo sapiens (Human), UniProt Q9UGN5); assay: FP assay PARP2 (fluorescence anisotropy probe displacement); assay type: binding; conditions: 60 nM PARP2, 8 nM fluorescent probe, 4 h, room temperature
Procedure: (§2) FP experiments were carried out at room temperature using no-binding black 384-well microplates. Recombinant full length PARP1 and PARP2 proteins produced in house were diluted to 20 nM and 60 nM, respectively, with assay buffer (50 mM Tris pH 8, 0.001% Triton X100, 10 mM MgCl2, and 150 mM NaCl) and incubated for 4 h with an equivalent volume of the 8 nM fluorescent probe diluted with assay buffer. Fluorescence anisotropy of the probe when bound to the proteins was measured in the presence of test compounds or solvent control and the effect on anisotropy determined. Polarization values were read using an Envision plate reader using excitation and emission wavelengths of 590 and 630 nm, respectively. All FP values are expressed as mP units. Inhibition ratio was calculated using readout (mP) following the equation as below: […]
(§3) % inhibition values for different test compound concentrations were calculated and fitted to a four parameter logistic plot in order to determine the IC50 value using XLfit.

[2] = Caco2 (A-B/B-A) permeability; assay type: in vitro ADME; conditions: human; for Papp A→B at 120 min, 5 μM: Caco-2, pH 7.4, apical-to-basolateral, read-out: Caco2 A-B apparent permeability (Papp); for Papp A→B at 120 min, 5 μM / Papp B→A at 120 min, 5 μM: HBSS pH 7.4, 120 min, 37° C.; for Papp B→A at 120 min, 5 μM: Caco-2, pH 7.4, basolateral-to-apical, read-out: Caco2 B-A apparent permeability (Papp); for efflux ratio at 120 min, 5 μM: Caco-2, pH 7.4, PappB-A/PappA-B, read-out: Caco2 efflux ratio (ER)
Outline: as §1

[3] = molecular target: Recombinant full length PARP1 (Homo sapiens (Human), UniProt P09874); assay: FP assay PARP1 (fluorescence anisotropy probe displacement); assay type: binding; conditions: 20 nM PARP1, 8 nM fluorescent probe, 4 h, room temperature
Procedure: as §2, §3

[4] = Thermodynamic solubility, FaSSiF; assay type: physicochemical; conditions: FaSSIF, 25 °C, thermodynamic from solid
Procedure: All incubations were performed in duplicate. Test compound or the control compound diclofenac sodium (1.0 mg) were placed into 1.5 mL glass vials. FaSSIF (1000 μL) was added into the vials. The samples were transferred to Eppendorf Thermomixer Comfort plate shaker and shaken at 25° C., 1100 rpm for 24 hours. The samples were then filtered. The filtrate was diluted by 1000-fold with water:acetonitrile 1:1 (v/v) for analysis by UPLC MS/MS to determine the concentration of test compound. The solubility value was calculated by quantification against a standard of known concentration.

[5] = Kinetic solubility, PBS, pH7.4; assay type: physicochemical; conditions: PBS pH 7.4, 25 °C, pH 7.4, aqueous buffer, kinetic from dmso stock, 300 μM test compound
Procedure: After incubation, the samples were filtered, and the filtrate was diluted by 1000-fold with water:acetonitrile 1:1 (v/v) for analysis by UPLC MS/MS to determine the concentration of test compound. The solubility value was calculated by quantification against a standard of known concentration.

Sequence of Recombinant full length PARP2 (Q9UGN5 whole entry): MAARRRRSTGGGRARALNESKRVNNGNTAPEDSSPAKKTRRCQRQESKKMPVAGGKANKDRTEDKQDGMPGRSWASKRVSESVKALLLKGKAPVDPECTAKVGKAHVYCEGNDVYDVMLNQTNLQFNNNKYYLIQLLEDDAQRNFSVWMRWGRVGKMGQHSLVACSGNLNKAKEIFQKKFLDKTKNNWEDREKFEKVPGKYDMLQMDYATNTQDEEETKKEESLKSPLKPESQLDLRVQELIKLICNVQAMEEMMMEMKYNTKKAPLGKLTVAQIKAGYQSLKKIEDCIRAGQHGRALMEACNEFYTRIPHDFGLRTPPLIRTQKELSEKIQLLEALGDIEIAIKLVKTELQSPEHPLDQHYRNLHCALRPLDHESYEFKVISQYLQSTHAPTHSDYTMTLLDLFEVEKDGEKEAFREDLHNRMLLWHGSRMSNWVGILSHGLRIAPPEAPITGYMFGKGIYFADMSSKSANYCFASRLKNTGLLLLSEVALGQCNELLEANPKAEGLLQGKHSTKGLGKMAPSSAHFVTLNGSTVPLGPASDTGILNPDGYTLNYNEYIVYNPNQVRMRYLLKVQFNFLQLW
Sequence of Recombinant full length PARP1 (P09874 whole entry): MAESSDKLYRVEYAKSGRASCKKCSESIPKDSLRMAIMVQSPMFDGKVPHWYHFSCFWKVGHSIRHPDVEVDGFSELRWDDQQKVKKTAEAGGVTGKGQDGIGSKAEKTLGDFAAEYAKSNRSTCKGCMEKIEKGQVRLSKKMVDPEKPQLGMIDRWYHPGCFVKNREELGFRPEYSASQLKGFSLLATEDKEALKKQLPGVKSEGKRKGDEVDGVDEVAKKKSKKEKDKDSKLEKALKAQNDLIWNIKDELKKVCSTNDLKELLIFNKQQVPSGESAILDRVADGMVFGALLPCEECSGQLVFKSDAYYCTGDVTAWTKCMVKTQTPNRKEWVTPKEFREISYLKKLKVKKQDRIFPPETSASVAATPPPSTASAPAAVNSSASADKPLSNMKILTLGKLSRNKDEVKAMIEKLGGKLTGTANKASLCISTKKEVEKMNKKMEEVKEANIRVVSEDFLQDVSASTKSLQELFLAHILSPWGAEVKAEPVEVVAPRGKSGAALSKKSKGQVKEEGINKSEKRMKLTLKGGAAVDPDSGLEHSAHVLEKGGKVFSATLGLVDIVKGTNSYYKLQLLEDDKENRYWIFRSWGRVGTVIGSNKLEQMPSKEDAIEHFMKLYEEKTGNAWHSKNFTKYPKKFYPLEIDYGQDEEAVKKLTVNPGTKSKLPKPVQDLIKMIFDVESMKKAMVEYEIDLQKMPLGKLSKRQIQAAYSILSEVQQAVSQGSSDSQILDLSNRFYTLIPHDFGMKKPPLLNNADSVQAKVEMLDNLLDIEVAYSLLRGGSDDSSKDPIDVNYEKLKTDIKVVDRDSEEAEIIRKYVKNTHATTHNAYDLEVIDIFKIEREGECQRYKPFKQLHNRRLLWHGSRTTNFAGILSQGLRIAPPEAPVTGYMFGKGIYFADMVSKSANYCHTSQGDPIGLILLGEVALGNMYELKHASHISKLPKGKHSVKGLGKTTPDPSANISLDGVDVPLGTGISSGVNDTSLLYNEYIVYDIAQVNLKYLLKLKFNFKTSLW

Row | Compound | Caco2 efflux ratio (ER) (Caco-2 cell monolayers) | Caco2 A-B apparent permeability (Papp) (Caco-2 cell monolayers) | Caco2 B-A apparent permeability (Papp) (Caco-2 cell monolayers) | IC50 (DLD1-BRCA2−/− cells) | IC50 [1] | Papp A→B at 120 min, 5 μM [2] | Papp B→A at 120 min, 5 μM [2] | IC50 [3] | IC50 (DLD1-BRCA2−/− cells; Homo sapiens, DLD-1, 168 h) | solubility thermodynamic at 24 h [4] | solubility kinetic at 2 h [5] | efflux ratio at 120 min, 5 μM [2]
1 | CCc1cc2ncc([C@H](C)N3CC[C@@H](Oc4ccc(C(=O)NC)nc4)C3)cc2[nH]c1=O (single isomer, unassigned) [Compound 13, 5-(((R)-1-((enantiomer 1 or 2)-1-(7-ethyl-6-oxo-5,6-dihydro-1,5-naphthyridin-3-yl)ethyl)pyrrolidin-3-yl)oxy)-N-methylpicolinamide] | (ER = 7.91) | 3.85 10*−6 cm/s | 30.43 10*−6 cm/s | 29.5 nM |  |  |  |  |  |  |  | 
2 | CCc1cc2cnc([C@@H](C)N3CC(Oc4ccc(C(=O)NC)nc4)C3)cc2[nH]c1=O (single isomer, unassigned) [Compound 47, (enantiomer 1 or 2)-5-((1-(1-(3-ethyl-2-oxo-1,2-dihydro-1,6-naphthyridin-7-yl)ethyl)azetidin-3-yl)oxy)-N-methylpicolinamide] | (ER = 7.38) |  |  |  | > 10000 nM | 4.82 ×10⁻⁶ cm/s | 35.6 ×10⁻⁶ cm/s | 5.8 nM | 26.8 nM |  |  | 
3 | CCc1cc2cnc([C@@H](C)N3CC(Oc4ccc(C(=O)NC)nc4)C3)cc2[nH]c1=O (single isomer, unassigned) [Compound 48, (enantiomer 1 or 2)-5-((1-(1-(3-ethyl-2-oxo-1,2-dihydro-1,6-naphthyridin-7-yl)ethyl)azetidin-3-yl)oxy)-N-methylpicolinamide] | (ER = 2.51) | 8.96 10*−6 cm/s | 22.47 10*−6 cm/s | 21.9 nM | > 10000 nM |  |  | 5.1 nM |  |  |  | 
4 | CCc1nc2ccc([C@H](C)N3CC(Oc4ccc(C(=O)NC)nc4)C3)cc2[nH]c1=O (single isomer, unassigned) [Compound 53, (enantiomer 1 or 2)-5-((1-(1-(2-ethyl-3-oxo-3,4-dihydroquinoxalin-6-yl)ethyl)azetidin-3-yl)oxy)-N-methylpicolinamide] | (ER = 2.51) | 13.2 10*−6 cm/s | 33.19 10*−6 cm/s | 12.1 nM | > 10000 nM |  |  | 24.2 nM |  |  |  | 
5 | CCc1nc2ccc([C@H](C)N3CC(Oc4ccc(C(=O)NC)nc4F)C3)cc2[nH]c1=O (single isomer, unassigned) [Compound 57, (enantiomer 1 or 2)-5-((1-(1-(2-ethyl-3-oxo-3,4-dihydroquinoxalin-6-yl)ethyl)azetidin-3-yl)oxy)-6-fluoro-N-methylpicolinamide] | (ER = 2.38) | 12.25 10*−6 cm/s | 29.21 10*−6 cm/s | 9.1 nM |  |  |  | 7.3 nM |  |  |  | 
6 | CCc1cc2ncc([C@@H](C)N3CC(Oc4ccc(C(=O)NC)nc4F)C3)cc2[nH]c1=O (single isomer, unassigned; enantiomer 2) [Compound 46, (enantiomer 2)-5-((1-(1-(7-ethyl-6-oxo-5,6-dihydro-1,5-naphthyridin-3-yl)ethyl)azetidin-3-yl)oxy)-6-fluoro-N-methylpicolinamide] | (ER = 8.07) | 5.51 10*−6 cm/s | 44.49 10*−6 cm/s | 6.6 nM | 2580 nM |  |  | 4.3 nM |  |  |  | 
7 | CCc1cc2cnc([C@H](C)N3CC(Oc4ccc(C(=O)NC)nc4F)C3)cc2[nH]c1=O (single isomer, unassigned; enantiomer 2) [Compound 50, (enantiomer 2)-5-((1-(1-(3-ethyl-2-oxo-1,2-dihydro-1,6-naphthyridin-7-yl)ethyl)azetidin-3-yl)oxy)-6-fluoro-N-methylpicolinamide] | (ER = 8.36) | 3.84 10*−6 cm/s | 32.1 10*−6 cm/s | 7.2 nM | > 10000 nM |  |  | 18.1 nM |  |  |  | 
8 | CCc1cc2ncc(CN3CC(Oc4ccc(C(=O)NC)nc4)C3)cc2[nH]c1=O [Compound 1, 5-((1-((7-ethyl-6-oxo-5,6-dihydro-1,5-naphthyridin-3-yl)methyl)azetidin-3-yl)oxy)-N-methylpicolinamide] |  |  |  |  |  | 3.86 ×10⁻⁶ cm/s | 22.7 ×10⁻⁶ cm/s | 4.8 nM | 4.5 nM | 1.77 µg/mL (≈ 4.5 µM) | 29.4 µM (≈ 11.6 µg/mL) | 
9 | CCc1cc2ncc([C@@H](C)N3CC(Oc4ccc(C(=O)NC)nc4)C3)cc2[nH]c1=O [Compound 4, (R)-5-((1-(1-(7-ethyl-6-oxo-5,6-dihydro-1,5-naphthyridin-3-yl)ethyl)azetidin-3-yl)oxy)-N-methylpicolinamide] |  |  |  |  | > 10000 nM | 4.77 ×10⁻⁶ cm/s | 35.7 ×10⁻⁶ cm/s | 10.3 nM | 216 nM | 115 µg/mL (≈ 283 µM) | 223 µM (≈ 90.9 µg/mL) | 7.49
10 | CCc1cc2ncc(CN3CC[C@@H](Oc4ccc(C(=O)NC)nc4)C3)cc2[nH]c1=O [Compound 11, (R)-5-((1-((7-ethyl-6-oxo-5,6-dihydro-1,5-naphthyridin-3-yl)methyl)pyrrolidin-3-yl)oxy)-N-methylpicolinamide] |  |  |  |  | > 10000 nM | 4.13 ×10⁻⁶ cm/s | 40 ×10⁻⁶ cm/s | 4.8 nM | 6 nM |  |  | 9.69
11 | CCc1nc2ccc(C(C)N3CC(Oc4ccc(C(=O)NC)nc4)C3)cc2[nH]c1=O (centres unmarked) [Compound 20, 5-((1-(1-(2-ethyl-3-oxo-3,4-dihydroquinoxalin-6-yl)ethyl)azetidin-3-yl)oxy)-N-methylpicolinamide] |  |  |  |  | > 10000 nM | 11.8 ×10⁻⁶ cm/s | 25.4 ×10⁻⁶ cm/s | 14.8 nM | 38.2 nM |  |  | 2.16
12 | CCc1nc2ccc(CN3CC[C@@H](Oc4ccc(C(=O)NC)nc4)C3)cc2[nH]c1=O [Compound 28, (R)-5-((1-((2-ethyl-3-oxo-3,4-dihydroquinoxalin-6-yl)methyl)pyrrolidin-3-yl)oxy)-N-methylpicolinamide] |  |  |  |  | > 10000 nM | 6.32 ×10⁻⁶ cm/s | 31.8 ×10⁻⁶ cm/s | 9.3 nM | 57.6 nM |  |  | 5.03
13 | CCc1cc2cnc(C(C)N3CC(Oc4ccc(C(=O)NC)nc4)C3)cc2[nH]c1=O (centres unmarked) [Compound 51, 5-((1-(1-(3-ethyl-2-oxo-1,2-dihydro-1,6-naphthyridin-7-yl)ethyl)azetidin-3-yl)oxy)-N-methylpicolinamide] |  |  |  |  | 9610 nM | 5.4 ×10⁻⁶ cm/s | 34.6 ×10⁻⁶ cm/s | 3.8 nM | 15.9 nM |  |  | 6.4
14 | CCc1cc2cnc(CN3CC[C@@H](Oc4ccc(C(=O)NC)nc4)C3)cc2[nH]c1=O [Compound 63, (R)-5-((1-((3-ethyl-2-oxo-1,2-dihydro-1,6-naphthyridin-7-yl)methyl)pyrrolidin-3-yl)oxy)-N-methylpicolinamide] |  |  |  |  | > 10000 nM | 5.35 ×10⁻⁶ cm/s | 42.5 ×10⁻⁶ cm/s | 7.03 nM | 5.4 nM |  |  | 7.96
